Experimental findings from patent EP0144441A1, “BLOOD PRESSURE-CONTROLLING AGENT” (HAYASHIBARA BIOCHEMICAL LABORATORIES, INC., priority 1983, dated 1984) are described below.

Series [1] relates to spontaneously hypertensive rats. As to the kind of experiment: Effect on spontaneously hypertensive rats (blood pressure, heart rate, body weight). Format: in vivo. As to conditions: for antihypertensive effect: separate experiment (not illustrated). On the procedure: Male spontaneously hypertensive rats (hereinafter referred to as SHR, weighing about 190 g) eight weeks old were used in groups of 5 animals. Platonin was orally adminstered at a dose of 1 µg/kg three times a week for 13 weeks. A physiological saline alone was adminstered to a control group in the same manner as above. During the administration period, blood pressure, heart rate and body weight were measured at timed intervals.
Blood pressure, systolic, was bloodlessly measured in the caudal artery using a rat blood pressure manometer (made by Narco Biosystems Co.), and heart rate using a polygraph (made by Nippon Kohden Kabushiki Kaisha).

The test system of series [2] is normal rats (Wistar-Kyoto). The series is described as follows: Effect on blood pressure in normal rats (also heart rate, body weight). Format: in vivo. The procedure: Male Wistar-Kyoto rats eight weeks old (weighing about 190 g) were used in groups of 5 animals. Platonin was orally administered at a dose of 1 µg/kg three times a week for 8 weeks. A physiological saline alone was administered to a control group in the same manner as above. During the administration period, blood pressure, heart rate and body weight were measured at timed intervals. Blood pressure, systolic, was bloodlessly measured in the caudal artery using a rat blood pressure manometer (made by Narco Biosystems Co.), and heart rate using a polygraph (made by Nippon Kohden Kabushiki Kaisha).

The nature of another series: Acute toxicity. As to conditions: rat, in vivo, male Wistar rats, suspended in 5 % gum arabic, observed 7 days, method of Van der Warden. The procedure:
Eight male Wistar rats (weighing about 150 g) per group were used. Platonin suspended in 5 % gum arabic was administered intraperitonealy, or orally using a gastric tube. […] The LD50 value was calculated by the method of Van der Warden.

[3] abbreviates: normal rats, in comparison with the control group.

Molecules are shown by their SMILES. Like-named read-outs stand apart in the source and are kept apart here.

Broadly, the LD50 is the dose expected to kill half of the subjects tested. Take `CCCCCCCN1C(C)=CS\C1=C/C=C(/C=C/c1scc(C)[n+]1CCCCCCC)c1scc(C)[n+]1CCCCCCC`: the acute hypotensive effect result in series [1] (SHR, also at a higher dose, time for the antihypertensive effect to be revealed was the same) was “any acute hypotensive effect was not found”. In addition, the Body weight change result in series [1] (SHR, oral, 1 µg/kg three times a week, Fig. 2) is listed as “no influence on body weight gain”; in series [1] (SHR, oral, 1 to 100 ug/kg three times a week (not illustrated)), “no effect on body weight”. For the same molecule, the “Effect on heart rate” value in series [1] (SHR, oral, 1 µg/kg three times a week, any time point during administration, compared with control group) is reported as “any significant change in heart rate was not observed”. Besides, the antihypertensive effect entry in series [1] (SHR, after about 4 weeks of administration) is reported as “significant decrease in blood pressure”; in series [1] (SHR, till the 3rd week of administration), “no effect at all”. In addition, the “Effect on blood pressure” value in series [1] (male SHR, oral, 1 ug/kg three times a week for 13 weeks, systolic, caudal artery, each measurement time point after 5 weeks, Fig. 1) is recorded as “remarkable blood pressure fall”. The “Effect on blood pressure in normal rats” value in series [2] (male Wistar-Kyoto rats, oral, 1 µg/kg three times a week for 8 weeks, Fig. 3) is “no influence on blood pressure”; in series [2] (normal rats, dose range of 1 to 100 µg/kg) it was “no change in blood pressure”. Besides, the body weight entry in series [2] (setting [3]) is reported as “no significant changes”. Also, the heart rate result in series [2] (setting [3]) is on record as “no significant changes”. In addition, the LD50 at 168 h in “Acute toxicity” (ip, intraperitoneal, read-out: intraperitoneal LD50 value) was determined as 54 mg/kg; in “Acute toxicity” (oral by gastric tube, read-out: oral LD50 value), 1500 mg/kg.
